We go through 5 molecules from patent publication US9201014B2, “Development of photostable near-IR cyanine dyes for in vivo imaging” (National University of Singapore, priority 2010, dated 2015).

The conditions of data set [1]: in DMSO; cited from earlier work.
Data set [2] in a line: Rates of photobleaching of CyNA-414 and CyN-414. It is filed as physicochemical. To be noted: for k, rate of photobleaching: 10 μM in 10 mM HEPES pH 7.4, 1% DMSO, xenon flash lamp, 12 hours. The procedure:
10-μM solutions of CyNA-414 and CyN-414 in 10 mM HEPES buffer (pH 7.4) containing 1% DMSO were placed in a 96-well black plate, and fluorescence intensity measurements (n=3) were recorded every 10 minutes for a total period of 12 hours (excitation-emission: 640-750 nm for CyN-414, and 790-820 nm for CyNA-414) under a xenon flash lamp. Values were fitted to a non-linear regression one-phase exponential decay (GraphPad Prism 5.0).

The nature of data set [3]: Absorbance and fluorescence maximum wavelengths and quantum yields of the CyNA library. The format is physicochemical. Particulars: for λabs, absorbance maximum wavelength / λem, fluorescence maximum wavelength: CyNA library; for φ, quantum yield: in DMSO, Cardiogreen as standard. The method in brief: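 Absorption and emission maxima and quantum yields of the 80-member amine-derivatized CyNA library were measured on a plate spectrophotometer.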

Data set [4] is described as follows: Primary screening of photostability of the CyNA library (time-course fluorescence, 8 h). It is filed as physicochemical. Also noted: F/Fo, fluorescent intensity at 8 hours vs 0 hours: unit: %. To be noted: 10 μM in HEPES 100 mM pH 7.4, 2% DMSO. The essentials: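 CyNA dyes at 10 μM in 100 mM HEPES pH 7.4 with 2% DMSO irradiated by xenon lamp for 8 h. Fluorescence (ex/em 790-820 nm) read every 10 min; stability given as F8h/Fo.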

For data set [5], the system named is mouse macrophage Raw 264.7 cell line. Briefly: High-throughput cell imaging-based screen of CyNA library. Particulars: Raw 264.7 vs mouse splenocytes. The procedure: In order to identify CyNA probes that could selectively stain mouse macrophage Raw 264.7 cell line (a mouse leukemic monocyte macrophage cell line), a library of CyNA compounds was assayed in a high-throughput cell imaging-based screen. The cell images were recorded using an automated imaging microscope system, IMAGEXPRESS MICRO™, and the fluorescent images were analyzed by cellular fluorescence intensity using METAXPRESS® image processing software.

The subject of data set [6] is primary mouse peritoneal cavity cells. The data set is described as follows: Validation of macrophage selectivity (peritoneal cells, Raw 264.7, splenocytes). The format is cell-based. To be noted: 1 μM, 1 hour. The procedure:
To validate the selectivity of CyNA-374, primary mouse peritoneal cavity cells were prepared. The identity of the mouse peritoneal cells was confirmed with CD11b macrophage antibody and flow cytometry. Next, the mouse peritoneal cells, Raw 264.7 cells and splenocytes were seeded in parallel. The following day, the cells were incubated with 1 μM CyNA-374 for 1 hour, then analyzed immediately using fluorescence microscopy.

The subject of data set [7] is M1 macrophages (LPS-activated Raw 264.7 cells). Briefly: Staining of activated (M1) macrophages. Particulars: 1 μM, 1 hour. It is filed as cell-based, mouse. The procedure:
To determine if CyNA-374 could stain activated macrophages, Raw 264.7 cells were activated to M1 macrophages. Raw 264.7 cells were plated at 5×10^6 cells/well and allowed to adhere. In some experiments, the cells were then starved for 12 hours, meaning that cells were washed with phosphate-buffered saline (PBS) and incubated in DMEM supplemented with 1% penicillin/streptomycin for 12 hours, but without 10% FBS. After 12 hours, the cells were exposed to 60 ng/mL LPS and, at the 24-hour time point, the supernatant from the cells stimulated by LPS was collected for measurement of NO2 using the Griess reaction. The unstimulated Raw 264.7 cells produced approximately 8.5 μmol/L NO2, while the stimulated Raw 264.7 (or M1) cells produced approximately 45 μmol/L NO2. The M1 cells were seeded in parallel with the unactivated Raw 264.7 cells and the splenocytes. The cells were incubated with 1 μM CyNA-374 for 1 hour, then analyzed using fluorescence microscopy.

Data set [8] is classed as physicochemical. The procedure: As a primary evaluation of photo stability, the decrease in fluorescence intensity of the 80 CyNA compounds was measured (see Table 2). The average decrease in fluorescence intensity after 8 hours of irradiation by a xenon lamp was approximately 18%. A subset of the most photostable compounds (i.e., F/Fo reported in Table 2 was greater than or equal to 95) was examined under stronger irradiation in various buffers.
10-μM CyNA solutions in 10 mM HEPES buffer (pH 7.4) or PBS (pH 7.3) containing 1% DMSO were placed in a 96-well black plate, and irradiated for periods of 15 minutes up to 2 hours with a high-intensity UV lamp (100 W, 365 nm) at a 2-cm distance. Values are represented as means (n=2), and fitted to a non-linear regression one-phase exponential decay (GraphPad Prism 5.0). Results not shown.

The nature of data set [9]: Photophysical properties of CyNE790 and ICG-sulfo-OSu. It is filed as physicochemical. The procedure: FIG. 7A is an absorbance spectrum of 10-μM solutions of CyNA-414, CyNE790, ICG and ICG-sulfo-OSu in DMSO and PBS.
FIG. […]
After corroborating the spectral properties of CyNE790 as a fluorescent NIR dye, its applicability for protein conjugation was assessed by comparing CyNE790 to ICG-sulfo-OSu, the commercially available succinidimyl ester of ICG. […] However, the application of ICG to molecular imaging has been limited because its fluorescence is drastically quenched after protein conjugation.

The nature of data set [10]: Formation of aggregates: absorbance spectrum in DMSO vs PBS. The format is physicochemical. Particulars: spectral profile DMSO vs PBS.
Data set [11] can be described thus: Photobleaching of CyNE790 and ICG-sulfo-OSu in PBS. The format is physicochemical. From the text: CyNE790 was also compared to ICG-sulfo-OSu, a commercially available succinimidyl ester of ICG (for chemical structures of CyNE790 and ICG-sulfo-OSu, see FIG. 8).
Data set [12] is described as follows: Fluorescence and photostability of dye-labeled EGFR-IgG2a antibodies. To be noted: conjugated to EGFR-IgG2a, vs ICG label. It is filed as physicochemical. The procedure: To compare CyNE790 and ICG-sulfo-OSu for in vivo imaging studies, each reactive ester was conjugated to a monoclonal anti-epidermal growth factor receptor (EGFR) antibody.
100 μg of anti-EGFR-IgG2a were washed with PBS using a Microcon 3K filter (Millipore), and re-suspended in 100 μL of Na2CO3—NaHCO3 buffer (pH 9.2). 20 equiv of CyNE790 or ICG-sulfo-OSu (typically 1.0-1.2 μL of a 10 mM solution in DMSO) were added and the whole mixture was shaken in the dark for 2 hours. The excess dye was removed by washing with PBS (3×500 μL) using a Microcon 3K filter (Millipore) (3 rounds at 14,000 rpm at 4° C. for 60 min).
[…] in PBS (pH 7.3) were fixed in a glass coverslide, and irradiated with a diode laser (95 mW, 740 nm, time frame: 500 ms, no delay). Emission was recorded with a NIR-enhanced CCD camera (Andor Technology) adapted to an Eclipse Ti-U microscope (40× magnification, filter cube 750/800), and images were processed using the software NIS-Elements 3.10. The resulting values are represented as means (n=3), and fitted to a non-linear regression one-phase exponential decay (GraphPad Prism 5.0).

As for `CC1(C)C(/C=C/C=C/C=C/C=C2\N(CCCCS(=O)(=O)[O-])c3ccc4ccccc4c3C2(C)C)=[N+](CCCCS(=O)(=O)[O-])c2ccc3ccccc3c21.[Na+]` [Cardiogreen], the “φ of quantum yield standard” value in data set [1] is given as 0.13.

Turning to `CCCN1/C(=C/C=C2\CCCC(/C=C/C3=[N+](CCC)c4ccccc4C3(C)C)=C2NCCCN2CCCCC2C)C(C)(C)c2ccccc21.[I-]` (centres unmarked) [CyN-414], in data set [2], the “k, rate of photobleaching” value came to 1.75e-05 s⁻¹.

For the molecule `CCCN1/C(=C/C=C2\CCCC(/C=C/C3=[N+](CCC)c4ccccc4C3(C)C)=C2N(Cc2ccccc2)C(C)=O)C(C)(C)c2ccccc21` [CyNA-374], in [3], the “λabs, absorbance maximum wavelength” value came out at 806 nm; the “λem, fluorescence maximum wavelength” value was found to be 821 nm; the “φ, quantum yield” value worked out at 0.14. Also, in data set [4], the F/Fo, fluorescent intensity at 8 hours vs 0 hours worked out at 94% and the “max RFU, maximum relative fluorescence units” value amounted to 1224.6. The “selective staining in cell imaging screen” value in data set [5] is recorded as “selectively stained mouse macrophages, but not mouse splenocytes”. The “staining by fluorescence microscopy” value in data set [6] was “stained both the Raw 264.7 cells and the mouse peritoneal cells”. In [7], the “staining of activated macrophages” value was “stained both the unactivated Raw 264.7 cells and the M1 cells”.

Turning to `CCCN1/C(=C/C=C2\CCCC(/C=C/C3=[N+](CCC)c4ccccc4C3(C)C)=C2N(CCCN2CCCCC2C)C(C)=O)C(C)(C)c2ccccc21.[I-]` (centres unmarked) [CyNA-414], in data set [3], the “λabs, absorbance maximum wavelength” value was determined as 804 nm; the “λem, fluorescence maximum wavelength” value was 819 nm; the “φ, quantum yield” value worked out at 0.13. In data set [4], the “F/Fo, fluorescent intensity at 8 hours vs 0 hours” value came out at 100 and the “max RFU, maximum relative fluorescence units” value is 925.5. Besides, the “k, rate of photobleaching” value in data set [2] is 2.5e-06 s⁻¹. In [2] (CyN-414 vs CyNA-414), this molecule gave a kCyN/kCyNA of 7. Also, the “photostability under stronger irradiation in various buffers” value in data set [8] is listed as “best photostability”.

As to `CCCN1/C(=C/C=C2\CCCC(/C=C/C3=[N+](CCC)c4ccccc4C3(C)C)=C2N(CCCN2CCCCC2C)C(=O)CCCC(=O)ON2C(=O)CCC2=O)C(C)(C)c2ccccc21` (centres unmarked) [CyNE790], in data set [9] (10 μM in PBS, 1% DMSO, excitation 760 nm, FIG. 7B), the “fluorescent properties compared to ICG and ICG-sulfo-OSu” value is “superior fluorescent properties to both ICG and ICG-sulfo-OSu”. The “Quantum Yield (DMSO)” value in data set [9] (DMSO, ICG as standard) came out at 13%. Further, in [9] (PBS pH 7.3, 0.1% DMSO), the “Quantum Yield (aqueous media)” value stood at 3.3% and the “ε (aqueous media)” value is recorded as 108,000 M^−1 · cm^−1. Moreover, the “formation of aggregates in aqueous solution” value in [10] was “little to no formation of aggregates”. The “photostability relative to ICG-sulfo-OSu” value in data set [11] (10 μM in PBS pH 7.3, 1% DMSO) turned out to be 15 fold. Also, the “maximum relative fluorescence units (rfu)” value in data set [11] (photobleaching experiments) turned out to be 708 rfu. Moreover, the “fluorescence intensity and photostability after protein conjugation” value in [12] was “maintains its superior fluorescence intensity and photostability”.
